Values quoted from earlier work in patent US5006329A, “Radioactive tagged compounds and method for the treatment of metastatic bone cancer” (priority 1989, dated 1991).

What was measured:
[1] = test system: malignant bone tissue; conditions: tumor vs normal bone
[2] = test system: bone marrow; conditions: after treatment of a patient; reported
[3] = test system: bone cancer; conditions: HMDP with Samarium-153 label
[4] = for high energy beta emissions: e.g.
[5] = test system: metastatic bone cancer; conditions: over 100 patients

Compound	accretion rate of tumor compared with normal bone [1]	blood profile changes [2]	safety with respect to healthy bone marrow tissue [3]	effectiveness in treating the malignancy ([3]; preliminary results)	half-life (radioactive) [4]	high energy beta emissions [4]	degree of malignancy [5]	dose of radioactivity to bone marrow [5]	pain [5]	effectiveness in treating the cancer ([5]; Dr. Ralph Robinson)
O=P([O-])([O-])CP(=O)(O)O.[Na+].[Na+] [MDP, disodium methylene-diphosphonate]	substantially higher than normal bone	–	–	–	–	–	–	–	–	–
[153Sm] [Samarium-153]	–	blood profile changes occur	indeterminate	promising	two	600-700 KeV	–	–	–	–
Strontium-89	–	blood profile changes occur	–	–	–	800 KeV	reduced	unacceptably high	reduced	acceptable
